Assay results taken from US10954222B2, “Benzothiophene compound, alternative autophagy-inducing agent and anticancer agent including the compound as active ingredient, and method for screening for compound having anticancer activity” (National University Corporation Tokyo Medical and Dental …, priority 2012, dated 2021).
Read-outs that look alike come from different tables or passages of the source.

Legend:
Lamp1-GFP/ATG5-KO MEFs = assay: Evaluation of activity to induce alternative autophagy (fluorescent bright spots due to aggregation of Lamp1-GFP); format: cell-based, mouse; conditions: for aggregation of Lamp1-GFP, visually determined: concentrations of 10 μM or higher (10 to 50 μM), 5 hours; for alternative autophagy-inducing activity (FIG. 16): Example 9, same method as Example 1; for ability to induce alternative autophagy, comparative statement: as shown in Examples
Procedure: First, by using a retrovirus, a gene for expression of a Lamp1-GFP fusion protein (also referred to as “Lamp1-GFP”) was introduced into ATG5-deficient mouse embryonic fibroblasts (also referred to as “ATG5-KO MEFs”). Then, a cell with high expression of Lamp1-GFP was cloned and prepared as Lamp1-GFP/ATG5-KO MEFs.
The ATG5-KO MEFs were prepared by introducing a gene for expression of SV40T antigen into MEFs established from an ATG5-deficient C57/B6J mouse at a fetal age of 14.5 days by an electroporation method using an Nucleofector system (manufactured by amaxa) for immortalization. In addition, the retrovirus was prepared by introducing an MSCV-Lamp1-GFP (zeocin resistant) vector into plat E cells, which were retrovirus packaging cells.
To the Lamp1-GFP/ATG5-KO MEFs seeded at 1×10^4/96 wells on the preceding day, each of the test compounds was added at a final concentration of 50 μM, and the Lamp1-GFP/ATG5-KO MEFs were cultured at 37° C. under 10% CO2 for 5 hours.
Then, for observation, Hoechst 33342 (manufactured by invitrogen) was added at a final concentration of 1 ng/ml to each culture liquid, followed by incubation for 5 minutes. Then, the culture liquid was replaced with 100 μl of HBSS. Subsequently, five visual fields per well were photographed at random with IN CELL ANALYZER 1000 (manufactured by GE Healthcare).
Then, the thus obtained novel benzothiophene compounds (TMD-459 and TMD-460) were evaluated for the ability to induce alternative autophagy by the same method as that described in Example 1. Note that, in Example 10, each of the compounds was added to culture liquids at final concentrations of 10, 20, 30, 40, and 50 μM. In addition, compound #9 was also added as a reference example to culture liquids at the above-described concentrations. Then, 5 hours after the addition of each of these compounds, five visual fields per each well were photographed at random with IN CELL ANALYZER 1000, and the presence or absence of fluorescent bright spots due to the aggregation of Lamp1-GFP was visually determined.

[1] = system: MEFs immortalized with SV40T antigen; conditions: 24 hours, CTB
[2] = system: MEFs immortalized with SV40T antigen; assay: cells; conditions: Mus musculus, 24 h, read-out: induced cell death of the MEFs immortalized with SV40T antigen
[3] = system: tumor cell line 53T implanted in wild-type C57/B6J mice; assay: In vivo anticancer activity, tumor volume in cancer-bearing mice implanted with 53T; set-up: species or system mouse; conditions: for anticancer activity (FIG. 17, tumor volumes in cancer-bearing mice): Example 9
Procedure: A tumor cell line (also referred to as “53T”) established from a tumor developed spontaneously in a p53 deficient C57/B6J mouse was implanted at 4 sites in the ventral skin of each of wild-type C57/B6J mice at 3×10^5 cells per site. From the following day, the compounds were administered to the mice every other day five times in total. The concentration of each compound was 0.4 μmol/(50 μl DMSO+100 μl PBS)/mouse/administration. In addition, a negative control group to which only the same amount of DMSO was administered was prepared. Then, 21 days (3 weeks) after the implantation, the tumor diameters of the mice were measured, and the tumor volumes were calculated, and compared with that of the control group.
The 53T was implanted at 4 sites in the ventral skin of each of wild-type C57/B6J mice at 3×10^5 cells per site. From the following day, 0 (DMSO alone), 5, 10, or 20 μM of each of compounds #09 and #13 was administered to six mice every other day five times in total. Then, 21 days (3 weeks) after the implantation, the tumor diameters of the mice were measured, and the tumor volumes were calculated. FIGS. 9 and 11 show the obtained results. Note that, in FIGS. 9 and 11, each point indicates the average volume of the tumors at the four sites in a mouse.
In addition, in the same manner as described above, the 53T was implanted in mice, and, from the following day, each of compound #09 at a concentration of 10 μM and compound #13 at a concentration of 5 μM was administered to four cancer-bearing mice every other day five times in total. Then, 21 days (3 weeks) after the implantation, the tumor diameters of the mice were measured, and the tumor volumes were calculated. In addition, a negative control to which DMSO was administered was also prepared, and the tumor volume was calculated in the same manner. In addition, these experiments were conducted three times independently of each other. FIGS. 10 and 12 show the obtained results. Note that in FIGS. 10 and 12, each point indicates the average volume of the tumors at the four sites in a mouse.

[4] = system: mouse tumor cell line 53T; assay: Evaluation of in vitro anticancer activity (Cell titer blue, cell death induction rate); format: cell-based; set-up: key: (CTB of negative control − CTB treated)/CTB of negative control; conditions: 24 hours, CTB
Procedure: First, the mouse tumor cell line 53T was seeded at 2×10^4/well on 96 well plates. Then, on the following day, each of compounds #09 and #13 dissolved in DMSO was added at a final concentration of 1, 5, 10, 20, or 50 μM. In addition, a negative control to which only DMSO was added was prepared. Subsequently, the cells were cultured at 37° C. under 10% CO2 for 24 hours. Then, by using Cell titer blue (CTB) (manufactured by Promega) according to the attached protocol, the amount of the fluorescence of each well of the cells 10 minutes after the addition of the CTB reagent was measured as a CTB measurement value of the cells brought into contact with compound #09 or #13. On the basis of such measurement values, the cell death induction rate of each of compounds #09 and #13 was calculated according to the following formula. Cell death induction rate=(CTB measurement value of negative control−CTB measurement value of cells to which compound was added)/CTB measurement value of negative control

[5] = system: p53-deficient cancer cells (53T); assay: Alternative autophagy-inducing activity in tumor cell line (Lamp2 aggregation, fluorescence and electron microscope); format: cell-based, mouse; conditions: 20 μM, six hours, FIGS. 3 to 6
Procedure: In the same manner as in the above-described <Evaluation of Alternative Autophagy-Inducing Activity> using the Lamp1-GFP/ATG5-KO MEFs, each of the compounds #09 and #13 was added at a final concentration of 20 μM to a culture liquid of the tumor cell line (also referred to as “53T”) established from the tumor developed spontaneously in the p53 deficient C57/B6J mouse. […] Note that, in this evaluation, Lamp2 was used instead of Lamp1. FIGS. 3 to 6 show the obtained results.

[6] = system: primary cultured fibroblasts (normal cells); assay: Activity to induce cell death specific to cancer cells: normal cells (CTB survival rate); format: cell-based; conditions: 20 μM, FIGS. 7 and 8
Procedure: CTB measurement values were obtained in the same manner as in the above-described <Evaluation of In Vitro Anticancer Activity> by adding each of compounds #09 and #13 at a final concentration of 20 μM to culture liquids of primary cultured fibroblasts (normal cells) and fibroblasts (cancer cells) immortalized with SV40. On the basis of the obtained CTB measurement values, the cell survival rate was calculated over time. Note that the cell survival rate was defined as 1-cell death induction rate. FIGS. 7 and 8 show the obtained results.

[7] = system: 53T implanted in wild-type C57/B6J mice; assay: Survival rate of cancer-bearing mice; format: in vivo, mouse; conditions: 10 μM every other day 5 times; compared with etoposide at 10 μM, FIGS. 13 to 15
[8] = system: fibroblasts (cancer cells) immortalized with SV40; assay: Activity to induce cell death specific to cancer cells: cancer cells (CTB survival rate); format: cell-based; conditions: 20 μM, FIGS. 7 and 8
[9] = Cell-killing effect (necrosis) of analogous compounds; format: cell-based; conditions: even when added at a low concentration

CCOC(=O)c1c(NC(C)=O)sc2c(OCCN(CC)CC)c(-c3ccccc3)ccc12 [TMD-459, Ethyl 2-Acetylamino-7-[2-(N,N-diethylamino)ethyloxy]-6-phenylbenzo[b]thiophene-3-carboxylate]
aggregation of Lamp1-GFP, visually determined (Lamp1-GFP/ATG5-KO MEFs): aggregation of the Lamp1-GFP was observed in all the cells

CCOC(=O)c1c(N)sc2c(OCCN(CC)CC)c(Br)ccc12 [TMD-460, Ethyl 2-Amino-7-[2-(N,N-diethylamino)ethyloxy]-6-bromobenzo[b]thiophene-3-carboxylate]
aggregation of Lamp1-GFP, visually determined (Lamp1-GFP/ATG5-KO MEFs): aggregation of the Lamp1-GFP was observed in all the cells
Cell death induction rate ([1]; 10 μM): 0.7701
Cell death induction rate ([1]; 20 μM): 0.875
Cell death induction rate ([1]; 30 μM): 0.8885
Cell death induction rate ([1]; 40 μM): 0.8902
Cell death induction rate ([1]; 50 μM): 0.8919
mortality at 20 µM [2]: ≥ 80%

N=C(Nc1ccc2c(c1)OCCO2)Nc1nc(-c2cccs2)cc(C(F)(F)F)n1 [compound 13]
in vivo anticancer activity (tumor volume vs control group, FIG. 2) ([3]; 0.4 μmol/mouse/administration, every other day five times, 21 days after implantation): selected as compounds having in vivo anticancer activity
in vivo anticancer activity (tumor volume, FIGS. 9 to 12) ([3]; 5, 10, or 20 μM every other day five times, 21 days after implantation): exhibited in vivo anticancer activity
in vivo anticancer activity at low concentration (FIG. 11) ([3]; administered at 5 μM): exhibited remarkable anticancer activity
Cell death induction rate ([4]; 1 μM): 0
Cell death induction rate ([4]; 5 μM): 0.1776
Cell death induction rate ([4]; 10 μM): 0.4559
Cell death induction rate ([4]; 20 μM): 0.768
Cell death induction rate ([4]; 50 μM): 0.9426
aggregation of Lamp2 and occurrence of autophagy [5]: aggregation of the lysosomal protein Lamp2 and occurrence of autophagy were observed
cell death of normal cells (cell survival rate over time) [6]: hardly induced cell death of the normal cells
improvement effect on the survival rate of the cancer-bearing mice [7]: higher improvement effect on the survival rate of the cancer-bearing mice than etoposide
cell death-inducing activity on cancer cells (cell survival rate over time) [8]: exhibited remarkable cell death-inducing activity on the cancer cells

CCOC(=O)c1c(NC(C)=O)sc2c(OCC(O)CNC3CCCCC3)c(Br)ccc12 (stereo not drawn) [compound 36]
cell-killing effect (necrosis) [9]: strong cell-killing effect (necrosis)

CCOC(=O)c1c(NC(C)=O)sc2c(OC(C)=O)cccc12 [compound 37]
anticancer activity (FIG. 17, tumor volumes in cancer-bearing mice) [3]: did not have anticancer activity
alternative autophagy-inducing activity (FIG. 16) (Lamp1-GFP/ATG5-KO MEFs): no alternative autophagy-inducing activity

CCOC(=O)c1c(NC(C)=O)sc2c(NC(C)=O)cccc12 [compound 38]
anticancer activity (FIG. 17, tumor volumes in cancer-bearing mice) [3]: did not have anticancer activity
alternative autophagy-inducing activity (FIG. 16) (Lamp1-GFP/ATG5-KO MEFs): no alternative autophagy-inducing activity

COc1c(Br)ccc2c(C(=O)O)c(NC(C)=O)sc12 [compound 40]
anticancer activity (FIG. 17, tumor volumes in cancer-bearing mice) [3]: did not have anticancer activity
alternative autophagy-inducing activity (FIG. 16) (Lamp1-GFP/ATG5-KO MEFs): no alternative autophagy-inducing activity

CCOC(=O)c1c(NC(=O)c2ccccc2)sc2c(O)c(Br)cc(Br)c12 [compound 42]
anticancer activity (FIG. 17, tumor volumes in cancer-bearing mice) [3]: did not have anticancer activity
alternative autophagy-inducing activity (FIG. 16) (Lamp1-GFP/ATG5-KO MEFs): no alternative autophagy-inducing activity

CCOC(=O)c1c(NC(C)=O)sc2c(Cl)c(/C=N/c3ccccc3)cc(Br)c12 [compound 44]
anticancer activity (FIG. 17, tumor volumes in cancer-bearing mice) [3]: did not have anticancer activity
alternative autophagy-inducing activity (FIG. 16) (Lamp1-GFP/ATG5-KO MEFs): no alternative autophagy-inducing activity

CCCC(=O)c1c(NC(C)=O)sc2c(Cl)c(/C=N\CCCCO)ccc12 [compound 46]
anticancer activity (FIG. 17, tumor volumes in cancer-bearing mice) [3]: did not have anticancer activity
alternative autophagy-inducing activity (FIG. 16) (Lamp1-GFP/ATG5-KO MEFs): no alternative autophagy-inducing activity

C=CC/N=C/c1cc(C)c2c(C(=O)OCC)c(NC(C)=O)sc2c1Cl [compound 47]
cell-killing effect (necrosis) [9]: strong cell-killing effect (necrosis)

CCOC(=O)c1c(NC(C)=O)sc2c(OCCN(CC)CC)c(-c3ccc(OC)cc3)ccc12 [formula (1-10)]
ability to induce alternative autophagy, comparative statement (Lamp1-GFP/ATG5-KO MEFs): ability to induce alternative autophagy is higher

CCOC(=O)c1c(NC(C)=O)sc2c(OCCN(CC)CC)c(-c3ccccc3SC)ccc12 [formula (1-14)]
ability to induce alternative autophagy, comparative statement (Lamp1-GFP/ATG5-KO MEFs): ability to induce alternative autophagy is higher

CCOC(=O)c1c(NC(C)=O)sc2c(OCCN(CC)CC)c(-c3ccc(O)cc3)ccc12 [formula (1-15)]
ability to induce alternative autophagy, comparative statement (Lamp1-GFP/ATG5-KO MEFs): ability to induce alternative autophagy is higher

CCOC(=O)c1c(NC(C)=O)sc2c(OCCN(CC)CC)c(-c3cccs3)ccc12 [formula (1-17)]
ability to induce alternative autophagy, comparative statement (Lamp1-GFP/ATG5-KO MEFs): ability to induce alternative autophagy is higher

CCOC(=O)c1c(NC(C)=O)sc2c(OCCN(CC)CC)c(-c3ccsc3)ccc12 [formula (1-18)]
ability to induce alternative autophagy, comparative statement (Lamp1-GFP/ATG5-KO MEFs): ability to induce alternative autophagy is higher
